{
  "source": "paper PMC10140010",
  "about": "(Investigational New Drugs, 2023)",
  "key": {"OATP1B1": {"molecular_target": "T1, OATP1B1 (Homo sapiens, UniProt Q9Y6L6)", "T1 construct": "No ESH6G27; host or cells: HEK293", "T1 sequence (Q9Y6L6 1-691)": "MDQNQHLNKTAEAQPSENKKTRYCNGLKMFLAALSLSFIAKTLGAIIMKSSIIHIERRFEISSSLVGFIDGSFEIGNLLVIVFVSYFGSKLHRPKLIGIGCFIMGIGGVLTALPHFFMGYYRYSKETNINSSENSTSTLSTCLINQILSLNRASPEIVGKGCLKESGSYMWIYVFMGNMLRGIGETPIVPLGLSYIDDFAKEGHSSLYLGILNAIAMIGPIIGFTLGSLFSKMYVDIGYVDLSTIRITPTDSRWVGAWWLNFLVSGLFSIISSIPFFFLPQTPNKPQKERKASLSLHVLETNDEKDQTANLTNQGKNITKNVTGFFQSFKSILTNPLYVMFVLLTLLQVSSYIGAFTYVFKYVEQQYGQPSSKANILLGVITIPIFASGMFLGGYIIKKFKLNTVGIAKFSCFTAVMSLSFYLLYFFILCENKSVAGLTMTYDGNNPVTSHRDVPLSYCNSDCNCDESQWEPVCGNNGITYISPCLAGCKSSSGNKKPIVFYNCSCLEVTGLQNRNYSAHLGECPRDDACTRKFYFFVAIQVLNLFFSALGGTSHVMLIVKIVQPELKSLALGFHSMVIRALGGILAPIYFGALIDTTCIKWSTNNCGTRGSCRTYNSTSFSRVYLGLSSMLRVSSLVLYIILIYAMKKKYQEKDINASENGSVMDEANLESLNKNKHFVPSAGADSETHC", "test": "Uptake substrate investigation in HEK293 cells expressing transporter", "type": "in vitro ADME", "settings": "for Ratio of uptake transit activity / Uptake transport activity, Net value: OATP1B1-293 vs MOCK293", "from_the_text": "The engineered NIH-3T3 (CD74-ROS1 fusion gene) cells was obtained from Nanjing GenScript Biotechnology Co., Ltd. The engineered Ba/F3 (SLC34A2-ROS1 fusion gene) cell line was obtained from Kyinno Biotechnology (Beijing) Co., Ltd. The HCC-78 (SLC34A2-ROS1 fusion gene) cell line was purchased from Shanghai Hongshun Biotechnology Co., Ltd. The engineered NIH-3T3 (CD74-ROS1 fusion gene) cells was obtained from Nanjing GenScript Biotechnology Co., Ltd. The engineered HEK293 cell lines with OATP1B1 (Lot. No ESH6G27), OATP1B3 (Lot. No ESH7G27), OCT2 (Lot. No ESH9G27), OAT1 (Lot. No ESHCG27), OAT3 (Lot. […] No ESHDG27) were purchased from GenoMembrane and validated using the specific substrate for each transporter. All cells were cultured at 37℃ in a 5% CO2 atmosphere. Cell culture reagents were obtained from Life Technologies, Inc. See Supplemental Table 1 for details on the source of the cell lines and the media used."}, "ALK^C1156Y": {"molecular_target": "ALK^C1156Y (Homo sapiens, UniProt Q9UM73, C1156Y)", "sequence (Q9UM73 19-1620 C1156Y)": "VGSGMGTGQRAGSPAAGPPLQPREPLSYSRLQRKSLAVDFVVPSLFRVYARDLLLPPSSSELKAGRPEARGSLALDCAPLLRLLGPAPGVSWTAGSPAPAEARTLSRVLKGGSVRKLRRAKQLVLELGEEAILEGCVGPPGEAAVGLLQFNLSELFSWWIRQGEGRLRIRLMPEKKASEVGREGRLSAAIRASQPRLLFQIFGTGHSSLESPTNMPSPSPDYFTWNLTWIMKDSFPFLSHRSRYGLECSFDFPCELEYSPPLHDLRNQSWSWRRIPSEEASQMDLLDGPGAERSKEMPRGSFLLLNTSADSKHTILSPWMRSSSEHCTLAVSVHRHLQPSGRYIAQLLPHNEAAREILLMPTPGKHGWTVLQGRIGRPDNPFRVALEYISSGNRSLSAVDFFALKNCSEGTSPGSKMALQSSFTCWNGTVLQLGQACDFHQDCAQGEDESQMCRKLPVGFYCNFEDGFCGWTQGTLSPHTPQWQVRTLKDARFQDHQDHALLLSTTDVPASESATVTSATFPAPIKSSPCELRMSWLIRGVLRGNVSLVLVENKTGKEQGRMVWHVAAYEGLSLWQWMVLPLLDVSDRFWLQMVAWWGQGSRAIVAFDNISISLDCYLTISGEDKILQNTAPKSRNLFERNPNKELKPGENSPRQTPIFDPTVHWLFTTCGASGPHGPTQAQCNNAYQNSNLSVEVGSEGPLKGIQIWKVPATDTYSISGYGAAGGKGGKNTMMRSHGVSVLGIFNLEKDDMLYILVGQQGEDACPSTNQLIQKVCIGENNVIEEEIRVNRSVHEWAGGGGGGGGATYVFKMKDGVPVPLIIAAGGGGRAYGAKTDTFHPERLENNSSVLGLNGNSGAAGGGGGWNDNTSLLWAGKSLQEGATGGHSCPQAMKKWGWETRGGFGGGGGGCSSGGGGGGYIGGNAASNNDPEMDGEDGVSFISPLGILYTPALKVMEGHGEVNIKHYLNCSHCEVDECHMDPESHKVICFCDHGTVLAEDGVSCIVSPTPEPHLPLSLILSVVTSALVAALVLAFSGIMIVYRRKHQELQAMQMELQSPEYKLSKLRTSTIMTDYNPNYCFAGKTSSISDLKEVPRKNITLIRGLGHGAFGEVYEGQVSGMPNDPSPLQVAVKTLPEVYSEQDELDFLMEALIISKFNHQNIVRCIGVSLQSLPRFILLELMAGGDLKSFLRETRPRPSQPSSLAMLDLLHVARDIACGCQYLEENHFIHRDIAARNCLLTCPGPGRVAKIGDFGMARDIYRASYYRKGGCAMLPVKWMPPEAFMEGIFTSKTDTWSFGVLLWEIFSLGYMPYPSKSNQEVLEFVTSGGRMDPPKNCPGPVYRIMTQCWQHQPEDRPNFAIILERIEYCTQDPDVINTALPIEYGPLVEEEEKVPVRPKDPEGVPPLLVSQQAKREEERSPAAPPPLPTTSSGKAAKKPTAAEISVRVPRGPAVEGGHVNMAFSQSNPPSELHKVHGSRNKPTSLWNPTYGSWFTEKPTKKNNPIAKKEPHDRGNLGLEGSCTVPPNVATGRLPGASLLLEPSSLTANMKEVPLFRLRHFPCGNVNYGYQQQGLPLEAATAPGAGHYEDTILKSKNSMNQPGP", "test": "HTRF kinase activity assay", "type": "biochemical", "method": "After the kinase proteins, Ulight-peptide species, adenosine triphosphate (ATP), and compound were mixed, the reaction was carried out at room temperature. Reactions were quenched by the addition of ethylene diamine tetraacetic acid buffer containing Eu antibody and XL665-streptavidin at the indicated time points. Plate reading was performed using an Envision (Perkin Elmer, MA, USA) multifunctional microplate reader."}, "MATE1": {"molecular_target": "T2, MATE1 (Homo sapiens, UniProt Q96FL8)", "T2 sequence (Q96FL8 1-570)": "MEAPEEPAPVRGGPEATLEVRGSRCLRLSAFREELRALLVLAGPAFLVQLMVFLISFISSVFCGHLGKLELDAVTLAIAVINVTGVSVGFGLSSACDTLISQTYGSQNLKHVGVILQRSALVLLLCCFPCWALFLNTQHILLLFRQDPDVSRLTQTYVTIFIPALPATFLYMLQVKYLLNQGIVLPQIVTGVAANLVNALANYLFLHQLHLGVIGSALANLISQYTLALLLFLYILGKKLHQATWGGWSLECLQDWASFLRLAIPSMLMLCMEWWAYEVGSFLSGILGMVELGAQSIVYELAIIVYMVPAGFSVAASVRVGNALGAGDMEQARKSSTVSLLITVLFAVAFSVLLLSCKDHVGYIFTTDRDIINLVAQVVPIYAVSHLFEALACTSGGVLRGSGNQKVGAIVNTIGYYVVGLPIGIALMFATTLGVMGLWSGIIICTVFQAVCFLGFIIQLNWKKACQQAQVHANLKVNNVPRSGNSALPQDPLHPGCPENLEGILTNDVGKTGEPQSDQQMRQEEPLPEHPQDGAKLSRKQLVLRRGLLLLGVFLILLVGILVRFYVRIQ", "method": "Using a stably transfected cell line of HEK293 expressing transporter OATP1B1, OATP1B3 or OCT2, formal substrate investigation tests were performed for three concentration gradients (30 µM, 3 µM, 0.3 µM) of iruplinalkib."}, "P-gp": {"molecular_target": "T3, P-gp (Homo sapiens, UniProt P08183)", "T3 construct": "endogenous in cells; host or cells: Caco-2", "T3 sequence (P08183 whole entry)": "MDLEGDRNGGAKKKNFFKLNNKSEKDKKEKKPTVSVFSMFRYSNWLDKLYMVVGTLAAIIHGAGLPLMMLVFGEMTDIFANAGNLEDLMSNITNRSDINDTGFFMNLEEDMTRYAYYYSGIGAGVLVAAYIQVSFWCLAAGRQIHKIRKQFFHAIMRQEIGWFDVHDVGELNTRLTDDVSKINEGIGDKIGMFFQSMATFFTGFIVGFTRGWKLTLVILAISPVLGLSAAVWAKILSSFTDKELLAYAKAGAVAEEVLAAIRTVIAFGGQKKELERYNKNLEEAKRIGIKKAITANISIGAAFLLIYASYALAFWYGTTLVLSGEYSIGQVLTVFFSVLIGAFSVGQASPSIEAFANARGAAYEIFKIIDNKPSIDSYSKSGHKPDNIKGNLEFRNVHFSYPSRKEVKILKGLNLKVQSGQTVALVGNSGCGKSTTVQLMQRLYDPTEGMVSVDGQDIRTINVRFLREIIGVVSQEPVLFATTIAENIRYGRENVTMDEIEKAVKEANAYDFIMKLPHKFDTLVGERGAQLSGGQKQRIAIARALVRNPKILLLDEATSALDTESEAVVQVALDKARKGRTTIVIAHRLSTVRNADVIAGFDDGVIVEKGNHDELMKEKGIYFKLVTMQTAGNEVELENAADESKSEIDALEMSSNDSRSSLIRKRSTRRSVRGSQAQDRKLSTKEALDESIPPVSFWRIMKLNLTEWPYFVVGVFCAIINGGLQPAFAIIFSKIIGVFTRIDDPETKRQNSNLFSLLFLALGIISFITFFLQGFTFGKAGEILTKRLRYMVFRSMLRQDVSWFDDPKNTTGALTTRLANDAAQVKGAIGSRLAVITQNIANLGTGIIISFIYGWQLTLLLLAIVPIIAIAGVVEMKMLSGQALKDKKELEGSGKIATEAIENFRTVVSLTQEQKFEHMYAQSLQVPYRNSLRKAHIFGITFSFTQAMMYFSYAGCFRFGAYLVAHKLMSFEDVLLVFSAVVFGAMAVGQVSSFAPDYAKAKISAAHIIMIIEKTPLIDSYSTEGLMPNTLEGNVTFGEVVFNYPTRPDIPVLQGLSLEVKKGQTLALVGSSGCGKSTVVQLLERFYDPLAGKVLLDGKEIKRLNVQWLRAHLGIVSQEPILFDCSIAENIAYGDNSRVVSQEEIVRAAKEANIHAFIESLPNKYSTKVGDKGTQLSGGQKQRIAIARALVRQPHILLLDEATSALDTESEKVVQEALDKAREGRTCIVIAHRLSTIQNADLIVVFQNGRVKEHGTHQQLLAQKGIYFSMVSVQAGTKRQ", "test": "ABC efflux transporter inhibitor test on Caco-2 cells (digoxin efflux)", "type": "in vitro ADME"}, "CYP1A2": {"tested_on": "CYP1A2", "test": "Hepatic enzyme induction in human hepatocytes", "type": "in vitro ADME", "settings": "10 µM, human hepatocytes from three donors", "experimental": "Human hepatocytes derived from three donors were used for evaluating for hepatic enzyme inducing activity. […] The gene expression related to cytochrome P450 isoenzyme CYP3A4 in hepatocytes of one of the three donors increased with iruplinalkib 1 µM."}, "[1]": {"tested_on": "phosphorylation of ROS1, AKT, ERK in NIH-3T3 (CD74-ROS1) cells", "test": "Western blot of ROS1 and downstream signaling phosphorylation", "type": "cell-based", "settings": "2 h incubation", "experimental": "(§1) In general, the cells were exposed to the drug and were harvested for western blot analysis. SDS-PAGE was used to separate the proteins of interest, which were then transferred to a nitrocellulose (NC) filtration membrane and soaked in a blocking solution [5% non-fat dry milk in tris-buffered saline with Tween 20 (TBST)] for 1 h at room temperature. Thereafter, the membrane was probed overnight with primary antibodies at 4℃ and washed three times with TBST. The corresponding secondary antibody diluent was added, incubated at room temperature for 1 h, and washed 3 times with TBST. After adding the enhanced chemiluminescence developer to the NC filtration membrane, it is developed in the imaging system (ChemiDoc™ XRS^+, BIO-RAD). See Supplementary Table 2 for details of the antibodies used.\n(§2) It is reported that ROS1-mediated cell signaling pathways include RAS-RAF-MEK-ERK, PI3K-AKT-mTOR and JAK-STAT3 pathways. According to reports and the differences in the expression of signaling pathway proteins in different cells, the key signaling proteins in different signaling pathways were selected for research."}, "[2]": {"tested_on": "phosphorylation of ROS1, ERK, SHP-1 in Ba/F3 (SLC34A2-ROS1) cells", "test": "Western blot of ROS1 and downstream signaling phosphorylation", "type": "cell-based", "settings": "2 h incubation", "experimental": "as §1, §2"}, "MATE2K": {"molecular_target": "T4, MATE2K (Homo sapiens, UniProt Q86VL8)", "T4 construct": "No ESHDG27; host or cells: HEK293", "T4 sequence (Q86VL8 1-566 isoform Q86VL8-3)": "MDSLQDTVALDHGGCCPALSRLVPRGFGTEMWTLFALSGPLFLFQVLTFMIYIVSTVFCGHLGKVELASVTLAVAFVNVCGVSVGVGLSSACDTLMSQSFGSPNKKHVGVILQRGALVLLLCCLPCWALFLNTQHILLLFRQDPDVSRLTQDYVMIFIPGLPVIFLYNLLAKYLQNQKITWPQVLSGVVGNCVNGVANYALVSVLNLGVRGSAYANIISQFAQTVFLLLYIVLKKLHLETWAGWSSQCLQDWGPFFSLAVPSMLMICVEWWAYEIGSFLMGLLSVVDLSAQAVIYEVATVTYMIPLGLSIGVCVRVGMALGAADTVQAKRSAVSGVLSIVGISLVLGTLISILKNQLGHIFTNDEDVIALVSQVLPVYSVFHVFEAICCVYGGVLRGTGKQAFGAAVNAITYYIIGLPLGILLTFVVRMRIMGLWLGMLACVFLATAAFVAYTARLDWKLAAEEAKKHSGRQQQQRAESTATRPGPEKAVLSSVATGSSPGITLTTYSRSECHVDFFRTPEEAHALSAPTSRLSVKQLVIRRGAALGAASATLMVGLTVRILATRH", "type": "in vitro ADME"}, "[3]": {"test": "Plasma protein binding rate (dialysis)", "type": "in vitro ADME", "experimental": "At three test concentrations (0.2, 2 and 10 µM), the plasma protein binding rate of iruplinalkib is as follows (Fig. 3a). […] With the increase of concentration, the protein binding rates of iruplinalkib in rat plasma decreased gradually, showing a certain concentration dependence, and there was no concentration dependence of protein binding rate observed in other species plasma."}, "[4]": {"settings": "MOCK293, test substrate 10 μM, no inhibitor, pre-test"}, "[5]": {"settings": "OATP1B1-293, test substrate 10 μM, no inhibitor, pre-test"}, "[6]": {"settings": "test substrate 10 μM, no inhibitor, pre-test"}, "[7]": {"settings": "human, Caco-2 cells, probe digoxin (5 µM), read-out: Exhaust inhibition rate (%)"}},
  "note": "“And” between values parts separate entries of the source, which are not always exact repeats. Identical values can stand only once. “Also recorded” adds a separate entry of the source. Like-named read-outs stand apart in the source and are kept apart here.",
  "data": [
    {"compound": "COc1cc(N2CCC3(CCN(C)CC3)CC2)ccc1Nc1ncc(Cl)c(Nc2ccccc2P(C)(C)=O)n1", "note": "[Iruplinalkib]", "values": [
      {"measurement": "uptake transport activity ratio, OATP1B1", "setting": "OATP1B1; 30 µM, 3 µM, 0.3 µM, HEK293", "result": "less than two"},
      {"measurement": "uptake substrate of OATP1B1", "setting": "OATP1B1; HEK293", "result": "not an uptake substrate"},
      {"measurement": "Uptake transport activity, Mean", "setting": "OATP1B1; MOCK293 (OATP1B1 set), 0.3 μM, Suppl. Table 11", "result": 7.468, "unit": "pmol/mg protein/min"},
      {"measurement": "Uptake transport activity, Mean", "setting": "OATP1B1; MOCK293 (OATP1B1 set), 3 μM, Suppl. Table 11", "result": 54.18, "unit": "pmol/mg protein/min"},
      {"measurement": "Uptake transport activity, Mean", "setting": "OATP1B1; MOCK293 (OATP1B1 set), 30 μM, Suppl. Table 11", "result": 601.2, "unit": "pmol/mg protein/min"},
      {"measurement": "Uptake transport activity, Mean", "setting": "OATP1B1; [4]", "result": 102.0, "unit": "pmol/mg protein/min"},
      {"measurement": "Uptake transport activity, Repeat 1 / Repeat 2", "setting": "OATP1B1; [4]", "result": "100.4 pmol/mg protein/min and 103.6 pmol/mg protein/min"},
      {"measurement": "Uptake transport activity, Mean", "setting": "OATP1B1; OATP1B1-293, 0.3 μM, Suppl. Table 11", "result": 8.227, "unit": "pmol/mg protein/min"},
      {"measurement": "Uptake transport activity, Mean", "setting": "OATP1B1; OATP1B1-293, 3 μM, Suppl. Table 11", "result": 46.74, "unit": "pmol/mg protein/min"},
      {"measurement": "Uptake transport activity, Mean", "setting": "OATP1B1; OATP1B1-293, 30 μM, Suppl. Table 11", "result": 564.7, "unit": "pmol/mg protein/min"},
      {"measurement": "Uptake transport activity, Mean", "setting": "OATP1B1; [5]", "result": 55.08, "unit": "pmol/mg protein/min"},
      {"measurement": "Uptake transport activity, Repeat 1 / Repeat 2", "setting": "OATP1B1; [5]", "result": "50.74 pmol/mg protein/min and 59.41 pmol/mg protein/min"},
      {"measurement": "Ratio of uptake transit activity", "setting": "OATP1B1; 0.3 μM, Suppl. Table 11", "result": 1.10},
      {"measurement": "Uptake transport activity, Net value", "setting": "OATP1B1; 0.3 μM, Suppl. Table 11", "result": 0.759, "unit": "pmol/mg protein/min"},
      {"measurement": "Ratio of uptake transit activity", "setting": "OATP1B1; 3 μM, Suppl. Table 11", "result": 0.86},
      {"measurement": "Uptake transport activity, Net value", "setting": "OATP1B1; 3 μM, Suppl. Table 11", "result": -7.440, "unit": "pmol/mg protein/min"},
      {"measurement": "Ratio of uptake transit activity", "setting": "OATP1B1; 30 μM, Suppl. Table 11", "result": 0.94},
      {"measurement": "Uptake transport activity, Net value", "setting": "OATP1B1; 30 μM, Suppl. Table 11", "result": -36.47, "unit": "pmol/mg protein/min"},
      {"measurement": "Ratio of uptake transit activity", "setting": "OATP1B1; [6]", "result": 0.54},
      {"measurement": "Uptake transport activity, Net value", "setting": "OATP1B1; [6]", "result": -46.9, "unit": "pmol/mg protein/min"},
      {"measurement": "IC50", "setting": "ALK^C1156Y", "result": "9.28 nM and < 10 nM"},
      {"measurement": "Uptake transport activity, Net value", "setting": "MATE1; 0.5 μM", "result": 532.9, "unit": "pmol/mg protein/min"},
      {"measurement": "Uptake transport activity, Net value", "setting": "MATE1; 5 μM", "result": 55.01, "unit": "pmol/mg protein/min"},
      {"measurement": "Uptake transport activity, Net value", "setting": "MATE1; 50 μM", "result": -114.5, "unit": "pmol/mg protein/min"},
      {"measurement": "P-gp inhibitor", "setting": "P-gp; Caco-2", "result": "strong inhibitor"},
      {"measurement": "inhibition at 0.1 μM", "setting": "P-gp; [7]", "result": -30.9, "unit": "%"},
      {"measurement": "inhibition at 0.3 μM", "setting": "P-gp; [7]", "result": 3.97, "unit": "%"},
      {"measurement": "inhibition at 1 μM", "setting": "P-gp; [7]", "result": -13.2, "unit": "%"},
      {"measurement": "inhibition at 3 μM", "setting": "P-gp; [7]", "result": -19.1, "unit": "%"},
      {"measurement": "inhibition at 10 µM", "setting": "P-gp; [7]", "result": 89.8, "unit": "%"},
      {"measurement": "inhibition at 30 μM", "setting": "P-gp; [7]", "result": 98.7, "unit": "%"},
      {"measurement": "inducer of CYP1A2", "setting": "CYP1A2", "result": "not an inducer"},
      {"measurement": "phosphorylation levels of ROS1, AKT, ERK", "setting": "[1]", "result": "inhibited"},
      {"measurement": "phosphorylation levels of ROS1, ERK, SHP-1", "setting": "[2]", "result": "inhibited"},
      {"measurement": "inhibition of MATE2K", "setting": "MATE2K", "result": "stronger inhibitor"},
      {"measurement": "plasma protein binding rate", "setting": "[3]; 0.2 µM, SD rats plasma", "result": "high protein binding rate"},
      {"measurement": "plasma protein binding rate", "setting": "[3]; 0.2, 2 and 10 µM, Beagle dogs plasma", "result": "medium protein binding rate"},
      {"measurement": "plasma protein binding rate", "setting": "[3]; 0.2, 2 and 10 µM, CD-1 mice plasma", "result": "medium protein binding rate"},
      {"measurement": "plasma protein binding rate", "setting": "[3]; 0.2, 2 and 10 µM, Macaca fascicularis plasma", "result": "medium protein binding rate"},
      {"measurement": "plasma protein binding rate", "setting": "[3]; 0.2, 2 and 10 µM, SD rats plasma", "result": "medium protein binding rate"},
      {"measurement": "plasma protein binding rate", "setting": "[3]; 0.2, 2 and 10 µM, human plasma", "result": "medium protein binding rate; also recorded: moderate"}
    ]}
  ]
}
